Assay results from BindingDB's records for doi:10.1016/0960-894X(96)00290-9 (1996).

Experiment: Inhibition of pancreatic cholesterol esterase using p-nitrophenylacetate or cholesteryl [1-14C]-oleate as substrates

| SMILES | IC50 |
| --- | --- |
| CC(C)(C)[C@H]1CC[C@H](CC(=O)C(F)(F)C(F)(F)F)CC1 [1-(4-tert-Butyl-cyclohexyl)-3,3,4,4,4-pentafluoro-butan-2-one] | 10 µM |
| CCCCCCCCCCCCC(F)(F)C(=O)C[C@H]1CC[C@]2(C)CCCC[C@H]2C1 [3,3-Difluoro-1-((2S,4aS,8aS)-4a-methyl-decahydro-naphthalen-2-yl)-pentadecan-2-one] | > 100 µM |
